ChEMBL document CHEMBL6078730, “Exploring the antiproliferative and proapoptotic activities of new pyridopyrimidine derivatives and their analogs” (Bioorg Med Chem, 2025)
Converted amounts (≈) assume the structure as drawn. Values belong to the compound of their own block, whether it stands above or below them. The source made the active and inactive calls. The calls are words filed in the database; no cut-off is given here.

Key:
T47D [1] = test: Antiproliferative activity against human T47D cells assessed as inhibition of cell proliferation incubated for 24 hrs by MTT assay; format: functional, cell-based
MDA-MB-435 = test: Antiproliferative activity against human MDA-MB-435 cells assessed as reduction in cell growth inhibition at 10 uM incubated for 24 hrs by MTT assay relative to control; format: functional; settings: read-out: GI
T47D [2] = test: Antiproliferative activity against human T47D cells assessed as reduction in cell growth inhibition at 10 uM incubated for 24 hrs by MTT assay relative to control; format: functional; settings: read-out: GI
T47D [3] = test: Induction of apoptosis in human T47D cells assessed as inhibition in Bcl2 expression at IC50 concentration incubated for 48 hrs by Western blotting analysis; format: functional, cell-based
T47D [4] = test: Induction of apoptosis in human T47D cells assessed as fold increase in ratio of apoptotic cells incubated for 48 hrs by AnnexinV-FITC/PI staining based flow cytometry; format: functional
T47D [5] = test: Induction of apoptosis in human T47D cells assessed as increase in p53 expression at IC50 concentration incubated for 48 hrs by Western blotting analysis; format: functional, cell-based
T47D [6] = test: Induction of cell cycle arrest in human T47D cells assessed as decrease in accumulation of cells at S phase at IC50 concentration incubated for 48 hrs by […]PI staining based flow cytometry analysis (reference value: 29.88%); format: functional; design: scale not given: the % may be the effect or the level left
[7] = molecular target: Phosphatidylinositol 4,5-bisphosphate 3-kinase catalytic subunit gamma isoform (Homo sapiens, UniProt P48736); test: Inhibition of PI3K gamma (unknown origin) using PIP2 as substrate preincubated for 10 mins followed by substrate addition and measured after 1 hrs by colorimetric analysis
Chain of Phosphatidylinositol 4,5-bisphosphate 3-kinase catalytic subunit gamma isoform (P48736 whole entry, canonical isoform): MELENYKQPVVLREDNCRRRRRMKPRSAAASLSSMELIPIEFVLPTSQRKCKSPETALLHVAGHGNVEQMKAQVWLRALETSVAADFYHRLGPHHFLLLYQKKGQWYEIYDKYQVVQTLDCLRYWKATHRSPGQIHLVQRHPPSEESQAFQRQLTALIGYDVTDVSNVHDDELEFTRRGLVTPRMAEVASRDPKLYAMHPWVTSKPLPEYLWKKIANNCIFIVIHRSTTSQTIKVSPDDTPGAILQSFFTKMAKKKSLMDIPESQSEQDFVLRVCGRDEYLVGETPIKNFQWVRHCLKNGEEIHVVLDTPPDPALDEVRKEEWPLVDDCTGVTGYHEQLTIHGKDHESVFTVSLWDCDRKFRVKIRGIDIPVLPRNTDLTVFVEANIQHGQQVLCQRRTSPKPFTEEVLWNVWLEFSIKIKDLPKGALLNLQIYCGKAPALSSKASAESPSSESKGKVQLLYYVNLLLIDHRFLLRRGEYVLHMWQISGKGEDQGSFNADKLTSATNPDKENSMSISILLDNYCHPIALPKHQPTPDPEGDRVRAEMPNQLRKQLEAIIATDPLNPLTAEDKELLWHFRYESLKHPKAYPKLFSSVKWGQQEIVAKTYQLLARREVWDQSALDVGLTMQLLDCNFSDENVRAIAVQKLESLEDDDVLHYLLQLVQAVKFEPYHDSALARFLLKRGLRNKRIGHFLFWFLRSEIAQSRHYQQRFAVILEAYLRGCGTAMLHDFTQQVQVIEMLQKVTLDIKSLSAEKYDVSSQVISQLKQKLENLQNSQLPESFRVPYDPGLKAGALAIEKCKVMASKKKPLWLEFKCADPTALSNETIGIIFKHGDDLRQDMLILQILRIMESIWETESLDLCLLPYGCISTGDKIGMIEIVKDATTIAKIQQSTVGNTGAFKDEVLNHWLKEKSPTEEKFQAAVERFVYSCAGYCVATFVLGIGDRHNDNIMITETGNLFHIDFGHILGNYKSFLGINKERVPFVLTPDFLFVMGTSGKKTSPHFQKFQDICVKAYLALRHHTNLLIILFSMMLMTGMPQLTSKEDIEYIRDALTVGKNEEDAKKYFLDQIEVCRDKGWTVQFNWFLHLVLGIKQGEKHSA

T47D [8] = test: Induction of apoptosis in human T47D cells assessed as increase in Bax expression at IC50 concentration incubated for 48 hrs by Western blotting analysis; format: functional, cell-based
T47D [9] = test: Induction of cell cycle arrest in human T47D cells assessed as increase in accumulation of cells at G2-M phase at IC50 concentration incubated for 48 hrs by […]PI staining based flow cytometry analysis (reference value: 17.28%); format: functional
T47D [10] = test: Induction of cell cycle arrest in human T47D cells assessed as decrease in accumulation of cells at G0-G1 phase at IC50 concentration incubated for 48 hrs by […]PI staining based flow cytometry analysis (reference value: 52.84%); format: functional; design: scale not given: the % may be the effect or the level left
T47D [11] = test: Induction of apoptosis in human T47D cells assessed as increase in necrotic cells at IC50 concentration incubated for 48 hrs by AnnexinV-FITC/PI staining based flow cytometry (reference value: 1.42%); format: functional
[12] = Upregulation of Bax expression in human T47D cells assessed as fold change at IC50 concentration incubated for 48 hrs by Western blotting analysis; format: functional
T47D [13] = test: Induction of apoptosis in human T47D cells assessed as decrease in viable cells at IC50 concentration incubated for 48 hrs by AnnexinV-FITC/PI staining based flow cytometry relative to control; format: functional, cell-based
[14] = Selectivity index, ratio of IC50 for human MCF-10A cells to IC50 for human T47D cells; format: toxicity; settings: MCF-10A cells versus T47D cells, read-out: Ratio IC50
[15] = molecular target: Phosphatidylinositol 4,5-bisphosphate 3-kinase catalytic subunit beta isoform (Homo sapiens, UniProt P42338); test: Inhibition of PI3K beta (unknown origin) using PIP2 as substrate preincubated for 10 mins followed by substrate addition and measured after 1 hrs by colorimetric analysis
Chain of Phosphatidylinositol 4,5-bisphosphate 3-kinase catalytic subunit beta isoform (P42338 whole entry, canonical isoform): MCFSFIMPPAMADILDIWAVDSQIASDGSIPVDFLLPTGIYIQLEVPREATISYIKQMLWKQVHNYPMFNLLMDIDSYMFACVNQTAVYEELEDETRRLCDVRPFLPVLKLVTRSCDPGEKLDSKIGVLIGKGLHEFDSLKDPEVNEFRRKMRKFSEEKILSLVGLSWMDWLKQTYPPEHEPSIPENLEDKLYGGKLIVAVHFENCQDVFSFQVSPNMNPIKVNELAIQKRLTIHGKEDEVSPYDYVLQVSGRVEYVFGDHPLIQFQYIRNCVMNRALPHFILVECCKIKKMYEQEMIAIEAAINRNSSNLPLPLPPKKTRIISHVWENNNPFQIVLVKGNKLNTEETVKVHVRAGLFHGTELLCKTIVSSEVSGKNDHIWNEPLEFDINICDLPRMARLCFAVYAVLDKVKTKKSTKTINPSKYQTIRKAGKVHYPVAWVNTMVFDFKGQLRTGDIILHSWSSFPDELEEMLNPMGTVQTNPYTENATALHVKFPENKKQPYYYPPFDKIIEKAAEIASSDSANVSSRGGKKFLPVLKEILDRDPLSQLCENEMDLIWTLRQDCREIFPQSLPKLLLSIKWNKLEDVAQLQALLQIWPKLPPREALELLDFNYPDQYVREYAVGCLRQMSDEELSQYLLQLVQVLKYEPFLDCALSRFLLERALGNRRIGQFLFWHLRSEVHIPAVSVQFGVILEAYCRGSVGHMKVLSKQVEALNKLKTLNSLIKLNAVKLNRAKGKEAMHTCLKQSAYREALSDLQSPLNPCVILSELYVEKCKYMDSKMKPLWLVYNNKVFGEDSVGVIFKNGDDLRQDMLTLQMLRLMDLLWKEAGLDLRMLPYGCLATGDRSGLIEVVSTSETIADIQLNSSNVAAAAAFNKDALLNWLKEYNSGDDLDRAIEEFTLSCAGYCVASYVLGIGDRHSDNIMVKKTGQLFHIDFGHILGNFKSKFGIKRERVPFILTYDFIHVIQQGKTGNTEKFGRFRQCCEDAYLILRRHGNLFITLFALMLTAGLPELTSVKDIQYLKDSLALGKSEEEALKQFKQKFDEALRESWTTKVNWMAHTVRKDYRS

T47D [16] = test: Induction of apoptosis in human T47D cells assessed as increase in Bax/Bcl-2 ratio at IC50 concentration incubated for 48 hrs by Western blotting analysis; format: functional, cell-based
[17] = Downregulation of Bcl-2 expression in human T47D cells assessed as fold change at IC50 concentration incubated for 48 hrs by Western blotting analysis; format: functional
[18] = molecular target: Phosphatidylinositol 4,5-bisphosphate 3-kinase catalytic subunit alpha isoform (Homo sapiens, UniProt P42336); test: Inhibition of PI3K alpha (unknown origin) using PIP2 as substrate preincubated for 10 mins followed by substrate addition and measured after 1 hrs by colorimetric analysis
Chain of Phosphatidylinositol 4,5-bisphosphate 3-kinase catalytic subunit alpha isoform (P42336 whole entry, canonical isoform): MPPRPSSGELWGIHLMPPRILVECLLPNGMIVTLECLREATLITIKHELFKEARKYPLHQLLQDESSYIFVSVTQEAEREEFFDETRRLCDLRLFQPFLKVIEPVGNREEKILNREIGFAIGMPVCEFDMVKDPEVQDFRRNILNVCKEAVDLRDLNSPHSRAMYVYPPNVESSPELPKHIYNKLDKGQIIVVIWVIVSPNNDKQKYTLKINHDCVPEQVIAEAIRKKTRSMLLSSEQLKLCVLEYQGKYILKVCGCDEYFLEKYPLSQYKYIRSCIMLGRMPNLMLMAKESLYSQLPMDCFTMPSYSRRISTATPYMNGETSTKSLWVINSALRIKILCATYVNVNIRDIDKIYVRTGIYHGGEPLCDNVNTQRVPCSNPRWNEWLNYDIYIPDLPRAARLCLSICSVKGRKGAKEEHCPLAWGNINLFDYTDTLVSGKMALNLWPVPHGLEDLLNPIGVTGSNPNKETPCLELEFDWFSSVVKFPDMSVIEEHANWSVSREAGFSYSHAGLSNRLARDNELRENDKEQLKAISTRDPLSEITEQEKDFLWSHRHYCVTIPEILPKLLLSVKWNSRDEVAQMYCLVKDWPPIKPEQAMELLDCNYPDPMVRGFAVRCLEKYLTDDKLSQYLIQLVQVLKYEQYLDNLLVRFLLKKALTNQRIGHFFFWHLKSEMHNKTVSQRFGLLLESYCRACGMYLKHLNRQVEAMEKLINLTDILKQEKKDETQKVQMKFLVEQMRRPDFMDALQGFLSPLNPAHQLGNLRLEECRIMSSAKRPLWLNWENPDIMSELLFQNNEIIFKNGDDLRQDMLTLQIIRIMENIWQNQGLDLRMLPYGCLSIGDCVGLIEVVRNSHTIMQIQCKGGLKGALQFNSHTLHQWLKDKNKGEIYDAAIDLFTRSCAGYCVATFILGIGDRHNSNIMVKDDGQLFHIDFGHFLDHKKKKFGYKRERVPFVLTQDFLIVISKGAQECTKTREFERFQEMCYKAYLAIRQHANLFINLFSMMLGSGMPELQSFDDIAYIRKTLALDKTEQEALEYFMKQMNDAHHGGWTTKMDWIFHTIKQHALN

[19] = Cytotoxicity against human MCF-10A cells assessed as reduction in cell viability at 10 uM incubated for 24 hrs by MTT assay; format: toxicity, cell-based
T47D [20] = test: Induction of apoptosis in human T47D cells assessed as increase in late apoptotic cells at IC50 concentration incubated for 48 hrs by AnnexinV-FITC/PI staining based flow cytometry (reference value: 0.13%); format: functional
[21] = molecular target: T1, Phosphatidylinositol 4,5-bisphosphate 3-kinase catalytic subunit delta isoform (Homo sapiens, UniProt O00329); test: Inhibition of PI3K delta (unknown origin) using PIP2 as substrate preincubated for 10 mins followed by substrate addition and measured after 1 hrs by colorimetric analysis
T1 sequence (O00329 whole entry): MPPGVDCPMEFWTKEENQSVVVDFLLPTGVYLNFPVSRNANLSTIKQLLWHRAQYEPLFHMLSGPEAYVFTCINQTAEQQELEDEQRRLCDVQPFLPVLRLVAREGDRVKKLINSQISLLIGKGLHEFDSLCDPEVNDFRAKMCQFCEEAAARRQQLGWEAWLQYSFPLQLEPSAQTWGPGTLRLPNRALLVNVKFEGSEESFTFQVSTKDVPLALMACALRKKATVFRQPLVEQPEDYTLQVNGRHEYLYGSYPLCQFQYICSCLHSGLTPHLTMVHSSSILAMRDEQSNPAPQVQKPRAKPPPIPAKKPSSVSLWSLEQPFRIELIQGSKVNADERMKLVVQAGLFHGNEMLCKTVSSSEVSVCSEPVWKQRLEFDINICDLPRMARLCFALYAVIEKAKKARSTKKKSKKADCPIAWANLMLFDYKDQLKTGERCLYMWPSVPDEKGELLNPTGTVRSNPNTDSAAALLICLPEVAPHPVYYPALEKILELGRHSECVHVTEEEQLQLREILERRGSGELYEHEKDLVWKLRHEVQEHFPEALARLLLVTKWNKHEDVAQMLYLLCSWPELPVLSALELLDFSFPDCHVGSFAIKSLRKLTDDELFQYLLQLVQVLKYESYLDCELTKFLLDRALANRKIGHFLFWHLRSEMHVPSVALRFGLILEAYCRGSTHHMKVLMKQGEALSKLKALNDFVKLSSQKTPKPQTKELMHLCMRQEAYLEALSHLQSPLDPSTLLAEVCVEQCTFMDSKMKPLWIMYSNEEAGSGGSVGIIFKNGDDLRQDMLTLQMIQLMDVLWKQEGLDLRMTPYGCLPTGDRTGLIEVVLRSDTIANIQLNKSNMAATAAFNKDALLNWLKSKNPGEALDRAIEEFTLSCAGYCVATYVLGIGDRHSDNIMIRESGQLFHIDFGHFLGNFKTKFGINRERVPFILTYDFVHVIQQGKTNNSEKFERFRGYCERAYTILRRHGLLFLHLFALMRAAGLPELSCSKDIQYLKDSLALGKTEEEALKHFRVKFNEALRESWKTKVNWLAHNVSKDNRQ

T47D [22] = test: Induction of apoptosis in human T47D cells assessed as increase in early apoptotic cells at IC50 concentration incubated for 48 hrs by AnnexinV-FITC/PI staining based flow cytometry (reference value: 0.64%); format: functional
NCI-H23 = test: Antiproliferative activity against human NCI-H23 cells assessed as reduction in cell growth inhibition at 10 uM incubated for 24 hrs by MTT assay relative to control; format: functional; settings: read-out: GI

- IC50 (T47D [1]): 2.56 µg/mL (≈ 4.98 µM)
SMILES: CS(=O)(=O)N1CCN(Cc2cc3nc(-c4cccc5[nH]ncc45)nc(N4CCOCC4)c3s2)CC1 [PICTILISIB]

SMILES: O=C(C1=CNC(=S)NC1c1ccc(F)cc1)c1ccc(F)cc1 (stereo not given)
- inhibition of growth at 10 µM (MDA-MB-435): 63%

- IC50 (T47D [1]): 18.4 µg/mL (≈ 68.4 µM)
SMILES: Cc1ccc(-c2ccc3c(=O)[nH]c(=S)[nH]c3n2)cc1
- inhibition of growth at 10 µM (T47D [2]): 81%

- IC50 [7]: 2120 nM
- IC50 [15]: 7.69 µM
- IC50 [18]: 632 nM
- IC50 [21]: 40.9 µM
- IC50 (T47D [1]): 1.46 µg/mL (≈ 5.04 µM)
SMILES: O=c1[nH]c(=S)[nH]c2nc(-c3ccc(Cl)cc3)ccc12
- Activity (T47D [3]): Active
- fold change (FC) (T47D [4]): ~37
- Activity (T47D [5]): Active
- Activity (T47D [6]): 26.87%
- Activity (T47D [8]): Active
- Activity (T47D [9]): 28.02%
- Activity (T47D [10]): 45.11%
- Activity (T47D [11]): 6.88%
- fold change (FC) [12]: 2.38
- inhibition of growth at 10 µM (T47D [2]): 81%
- Activity (T47D [13]): Active
- selectivity ratio [14]: 289
- Activity (T47D [16]): Active
- fold change (FC) [17]: 0.69
- IC50 at 24 h [19]: 422 µg/mL (≈ 1460 µM)
- Activity (T47D [20]): 11.51%
- Activity (T47D [22]): 18.83%

- IC50 (T47D [1]): 22.1 µg/mL (≈ 73.7 µM)
SMILES: O=c1[nH]c(=S)[nH]c2nc(-c3ccc([N+](=O)[O-])cc3)ccc12
- inhibition of growth at 10 µM (T47D [2]): 81%

SMILES: Cc1ccc(C(=O)C2=CNC(=S)NC2c2ccc(O)cc2)cc1 (stereo not given)
- inhibition of growth at 10 µM (MDA-MB-435): 184%

- IC50 (T47D [1]): 16.1 µg/mL (≈ 63 µM)
SMILES: O=c1[nH]c(=S)[nH]c2nc(-c3ccccc3)ccc12
- inhibition of growth at 10 µM (T47D [2]): 50%

SMILES: Cc1ccc(C(=O)C2=CNC(=O)NC2c2ccc(O)cc2)cc1 (stereo not given)
- inhibition of growth at 10 µM (NCI-H23): 114%

- IC50 (T47D [1]): 6.09 µg/mL (≈ 22.3 µM)
SMILES: O=c1[nH]c(=S)[nH]c2nc(-c3ccc(F)cc3)ccc12
- inhibition of growth at 10 µM (T47D [2]): 81%

- IC50 (T47D [1]): 52.7 µg/mL (≈ 185 µM)
SMILES: COc1ccc(-c2ccc3c(=O)[nH]c(=S)[nH]c3n2)cc1
- inhibition of growth at 10 µM (T47D [2]): 81%

SMILES: O=C(C1=CNC(=S)NC1c1ccc(F)cc1)c1ccc(Cl)cc1 (stereo not given)
- inhibition of growth at 10 µM (MDA-MB-435): 63%

- IC50 (T47D [1]): 9.62 µg/mL (≈ 28.8 µM)
SMILES: O=c1[nH]c(=S)[nH]c2nc(-c3ccc(Br)cc3)ccc12
- inhibition of growth at 10 µM (T47D [2]): 81%

SMILES: O=C(C1=CNC(=S)NC1c1ccc(F)cc1)c1ccccc1 (stereo not given)
- inhibition of growth at 10 µM (MDA-MB-435): 63%
